In patent publication US20200268768A1, “CENICRIVIROC COMBINATION THERAPY FOR THE TREATMENT OF FIBROSIS” (Tobira Therapeutics, Inc., priority 2015, published 2020):
Counter-ions that a name gives are not always drawn.

Key:
[1] = system: HIV-1 infected adult subjects; experiment: Study 202 biomarkers of inflammation; type: in vivo, human; conditions: EFV 600 mg
Description: As an exploratory analysis, levels of inflammation biomarkers MCP-1, sCD14, high sensitivity C-reactive protein [hs-CRP], interleukin-6 [IL-6], D-dimer, and fibrinogen) were measured. Baseline values and changes from baseline at Week 24 and Week 48 of MCP-1, sCD14, hs-CRP, IL-6, D-dimer, and fibrinogen are summarized in Table 22.
The sCD14 samples were originally analyzed in 2 separate batches: Batch 1 included samples leading up to the Week 24 primary analysis and Batch 2 included Week 32 and Week 48 (end of study) samples. A repeat analysis of archived samples all analyzed in one batch was conducted for consistency in analysis across time points. To control for the effects of covariates, a linear mixed-model repeated-measures analysis was conducted on the changes from baseline in sCD14 (analysis dated September 2013).

[2] = system: adults with CCR5 tropic HIV-1; experiment: Study 202 post-hoc APRI and FIB-4 fibrosis index scores; type: in vivo, human
Description: APRI and FIB-4 scores were calculated. Change in score category from baseline (BL) to Weeks 24 and 48 was assessed in patients with non-missing data. Correlations between changes from BL in APRI and FIB-4 scores, and MCP-1 (CCR2 ligand) and sCD14 (inflammatory biomarker) levels were evaluated.

[3] = Solubility of cenicriviroc mesylate; type: physicochemical
[4] = Week 24, CVC pooled 100 and 200 mg, or EFV
[5] = Week 48, CVC pooled 100 and 200 mg, or EFV

O=C1Nc2ccc(Cl)cc2[C@@](C#CC2CC2)(C(F)(F)F)O1 [EFV, efavirenz, reference compound]
sCD14 (original values) change from baseline, mean ([1]; Week 12): 90000 pg/mL | sCD14 (original values) change from baseline, median ([1]; Week 12): 180000 pg/mL | D-dimer change from baseline, mean ([1]; Week 24): -53 ng/mL | D-dimer change from baseline, median ([1]; Week 24): -26 ng/mL | Fibrinogen change from baseline, mean ([1]; Week 24): -28 mg/dL | Fibrinogen change from baseline, median ([1]; Week 24): -31 mg/dL | IL-6 change from baseline, mean ([1]; Week 24): -8.72 pg/mL | IL-6 change from baseline, median ([1]; Week 24): 0.00 pg/mL | MCP-1 change from baseline, mean ([1]; Week 24): -44 pg/mL | MCP-1 change from baseline, median ([1]; Week 24): -17 pg/mL | hs-CRP change from baseline, mean ([1]; Week 24): -0.46 mg/dL | hs-CRP change from baseline, median ([1]; Week 24): -0.01 mg/dL | sCD14 (original values) change from baseline, mean ([1]; Week 24): 230000 pg/mL | sCD14 (original values) change from baseline, median ([1]; Week 24): 130000 pg/mL | sCD14 (original values) change from baseline, mean ([1]; Week 32): 480000 pg/mL | sCD14 (original values) change from baseline, median ([1]; Week 32): 170000 pg/mL | D-dimer change from baseline, mean ([1]; Week 48): -34 ng/mL | D-dimer change from baseline, median ([1]; Week 48): 0.0 ng/mL | Fibrinogen change from baseline, mean ([1]; Week 48): -30 mg/dL | Fibrinogen change from baseline, median ([1]; Week 48): -22 mg/dL | IL-6 change from baseline, mean ([1]; Week 48): -13.11 pg/mL | IL-6 change from baseline, median ([1]; Week 48): 0.00 pg/mL | MCP-1 change from baseline, mean ([1]; Week 48): 4.2 pg/mL | MCP-1 change from baseline, median ([1]; Week 48): 33.6 pg/mL | hs-CRP change from baseline, mean ([1]; Week 48): -0.71 mg/dL | hs-CRP change from baseline, median ([1]; Week 48): -0.03 mg/dL | sCD14 (original values) change from baseline, median ([1]; Week 48): 460000 pg/mL | Subjects with decrease in FIB-4 score by one category ([2]; EFV arm, all subjects <1.45 at baseline): no subject treated with EFV decreased in FIB-4 score by one category | Subjects in APRI category <0.5 [2, 4]: 100% | Subjects in FIB-4 category <1.45 [2, 4]: 100% | Subjects with APRI decreased 1 category from baseline [2, 4]: 5% | Subjects in APRI category <0.5 [2, 5]: 100% | Subjects in FIB-4 category 1.45-3.25 [2, 5]: 6% | Subjects in FIB-4 category <1.45 [2, 5]: 94% | Subjects with APRI decreased 1 category from baseline [2, 5]: 6%

CCCCOCCOc1ccc(-c2ccc3c(c2)C=C(C(=O)Nc2ccc([S@@+]([O-])Cc4cncn4CCC)cc2)CCCN3CC(C)C)cc1 [cenicriviroc mesylate, (S)-8-[4-(2-Butoxyethoxy)phenyl]-1-isobutyl-N-(4-{[(1-propyl-1H-imidazol-5-yl)methyl]sulfinyl}phenyl)-1,2,3,4-tetrahydro-1-benzazocine-5-carboxamide monomethanesulfonoate]
Solubility ([3]; aqueous solution at pH 3): sparingly soluble | Solubility ([3]; aqueous solution from pH 1 to 2): freely soluble | Solubility ([3]; aqueous solution from pH 4 to 13 and in water): practically insoluble | Solubility ([3]; in 99.5% ethanol): sparingly soluble | Solubility ([3]; in acetonitrile, 1-octanol, tetrahydrofuran): slightly soluble | Solubility ([3]; in ethyl acetate and diethylether): practically insoluble | Solubility ([3]; in glacial acetic acid, methanol, benzyl alcohol, dimethylsulfoxide, N,N-dimethylformamide): freely soluble | Solubility ([3]; in pyridine and acetic anhydride): soluble
